From paper PMC4111400 (Journal of Medicinal Chemistry, 2014)
Read-outs that look alike come from different tables or passages of the source.

How the values were obtained:
[1] = test system: Na+ channels in CAD cells; test: frequency; format: cell-based, mouse; conditions: 500 μM (Figure 9 legend: concentrations greater than 500 μM)
[2] = test system: subcutaneous Metrazol (scMet) seizure; conditions: 10−13; cited from earlier work
[3] = test system: hippocampal kindled seizure; conditions: ip; cited from earlier work
[4] = test system: Na+ channels in CAD cells; conditions: cited from earlier work
[5] = test system: Na+ channels in CAD cells; conditions: 100 μM; cited from earlier work

COC[C@@H](NC(C)=O)C(=O)NCc1ccccc1 [(R)-1, (R)-N-Benzyl 2-acetamido-3-methoxypropionamide]
frequency (use) inhibition of Na+ currents [1]: significant inhibition of use-dependence
activity in the scMet model [2]: no activity
ED50, rat hippocampal seizure model [3]: 14 mg/kg
effect on Na+ channel fast inactivation [4]: did not affect Na^+ channel fast inactivation
frequency (use) inhibition of Na+ currents [5]: not observed notable frequency (use) inhibition of Na^+ currents
